The target of the test is Integrin alpha-IIb/beta-3 (Homo sapiens, UniProt P05106+P08514). Kind of test: Inhibition of integrin alphaIIb-beta3 binding. The format is protein-complex assay.
Sequence of Integrin alpha-IIb/beta-3 (P05106 27-788 limits assumed): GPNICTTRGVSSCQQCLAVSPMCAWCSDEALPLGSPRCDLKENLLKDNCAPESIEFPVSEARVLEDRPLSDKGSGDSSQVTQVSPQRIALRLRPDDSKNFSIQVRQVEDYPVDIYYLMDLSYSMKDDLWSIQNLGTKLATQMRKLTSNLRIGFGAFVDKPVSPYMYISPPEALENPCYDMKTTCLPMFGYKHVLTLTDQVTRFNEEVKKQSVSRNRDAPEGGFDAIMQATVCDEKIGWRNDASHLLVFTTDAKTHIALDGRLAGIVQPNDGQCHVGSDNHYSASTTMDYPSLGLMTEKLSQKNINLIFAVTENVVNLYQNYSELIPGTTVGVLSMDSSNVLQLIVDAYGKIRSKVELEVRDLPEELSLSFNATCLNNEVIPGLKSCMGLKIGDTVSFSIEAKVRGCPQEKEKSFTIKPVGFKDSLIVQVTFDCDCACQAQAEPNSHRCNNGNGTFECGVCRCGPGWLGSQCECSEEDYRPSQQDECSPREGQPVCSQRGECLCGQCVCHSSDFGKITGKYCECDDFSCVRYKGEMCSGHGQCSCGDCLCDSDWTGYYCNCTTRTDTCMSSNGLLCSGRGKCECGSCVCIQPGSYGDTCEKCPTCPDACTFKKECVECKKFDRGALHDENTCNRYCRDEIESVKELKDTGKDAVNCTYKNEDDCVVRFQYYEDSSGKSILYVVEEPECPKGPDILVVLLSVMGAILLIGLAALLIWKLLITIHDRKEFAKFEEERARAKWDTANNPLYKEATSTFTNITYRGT
Sequence of Integrin alpha-IIb/beta-3 (P08514 32-887 limits assumed): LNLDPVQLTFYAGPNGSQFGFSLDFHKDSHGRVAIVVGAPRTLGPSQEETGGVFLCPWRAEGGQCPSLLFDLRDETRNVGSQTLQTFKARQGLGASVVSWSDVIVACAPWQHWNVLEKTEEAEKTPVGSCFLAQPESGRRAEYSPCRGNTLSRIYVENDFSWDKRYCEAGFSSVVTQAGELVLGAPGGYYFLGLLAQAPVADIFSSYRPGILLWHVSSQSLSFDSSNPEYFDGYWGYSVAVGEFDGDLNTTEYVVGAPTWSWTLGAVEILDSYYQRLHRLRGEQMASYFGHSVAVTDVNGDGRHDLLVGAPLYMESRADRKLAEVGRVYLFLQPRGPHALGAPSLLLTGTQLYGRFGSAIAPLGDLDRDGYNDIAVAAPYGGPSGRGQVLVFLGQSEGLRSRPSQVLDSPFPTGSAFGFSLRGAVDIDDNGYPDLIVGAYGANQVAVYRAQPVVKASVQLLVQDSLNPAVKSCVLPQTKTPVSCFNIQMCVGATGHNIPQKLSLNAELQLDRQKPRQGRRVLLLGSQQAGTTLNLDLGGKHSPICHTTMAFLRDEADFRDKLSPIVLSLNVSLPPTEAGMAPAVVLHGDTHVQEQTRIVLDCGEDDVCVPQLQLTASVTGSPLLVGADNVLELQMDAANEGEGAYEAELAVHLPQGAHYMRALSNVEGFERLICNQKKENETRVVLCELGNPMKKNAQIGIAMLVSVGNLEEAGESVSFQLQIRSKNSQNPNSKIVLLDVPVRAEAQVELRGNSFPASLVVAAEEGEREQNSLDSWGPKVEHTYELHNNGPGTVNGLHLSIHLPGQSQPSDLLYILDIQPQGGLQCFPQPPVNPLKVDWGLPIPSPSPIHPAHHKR
Sequence of Integrin alpha-IIb/beta-3 (P08514 891-1039 limits assumed): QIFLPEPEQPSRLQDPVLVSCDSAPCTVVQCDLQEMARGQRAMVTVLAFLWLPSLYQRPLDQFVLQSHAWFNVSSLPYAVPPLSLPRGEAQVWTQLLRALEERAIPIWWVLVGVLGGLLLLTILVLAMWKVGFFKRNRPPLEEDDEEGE

In general, IC50 refers to the concentration at which inhibition is half-maximal. The low end stands for greater potency in that assay, the high end for weaker potency in that assay. `N=C(N)NCCC[C@H](N)C(=O)NCC(=O)N[C@@H](CC(=O)O)C(=O)O` returned an IC50 greater than 1 mM.

(Values after ChEMBL document CHEMBL1134590, “Determination of the binding specificity of an integral membrane protein by saturation transfer difference NMR: RGD peptide ligands binding to integrin alphaIIbbeta3” (J Med Chem, 2001).)
